{"source": "patent US20110257220A1", "about": "“3,11 b-cis-Dihydrotetrabenazine for the Treatment of Schizophrenia and Other Psychoses” (CAMBRIDGE LABORATORIES (IRELAND) LIMITED, priority 2005, published 2011)", "key": {"[1]": {"test_system": "female hooded-Lister rats", "assay": "Novel object recognition (NOR) task, sub-chronic PCP-induced cognitive deficit", "type": "in vivo, rat", "description": "Certain pre-clinical tests allow the observation of relatively subtle cognitive deficits in the rat that resemble cognitive symptoms in subjects with schizophrenia. The cognitive deficits observed are seen in behaviours such as working memory deficits which may be measured by recognition tasks such as the novel object recognition (NOR) paradigm. A recognition memory task allows the comparison between presented stimuli and previously stored information. Ennaceur & Delacour, Behav. Brain Res. 31: 47-59 (1988) described the NOR test in rats which was based on the differential exploration of familiar and new objects. The NOR test is a non-rewarded, ethologically relevant paradigm based on the spontaneous exploratory behaviour of rats which measures working memory. Each session consists of two trials. In the first trial, the rats are exposed to two identical objects in an open field. During the second trial, rats are exposed to two dissimilar objects, one familiar object from the first trial and one new object. Object recognition in rats can be measured as the difference in time spent exploring the familiar and the new object.\nThe abovementioned rodent model was used to assess the effects of the Isomer A on sub-chronic PCP-induced deficits in working memory using the novel object recognition (NOR) paradigm. The working hypothesis was that both acute and sub-chronic treatment with Isomer A will attenuate the selective working memory deficit induced by sub-chronic PCP as measured in the NOR test paradigm.\nRats are allowed to habituate to the empty test box and the behavioural test room environment for 1 hour on day 1. Prior to behavioural testing on day 2 rats are given a further 3 minutes habituation.\nFollowing the 3 minute habituation period, the rats are given two 3 minute trials (T1 and T2) which are separated by a 1 minute inter-trial interval in the home cage during which the objects are changed.\nIn this trial, the animals are allowed to explore two identical objects (A1 and A2) for 3 minutes.\nIn this trial, the animals explore a familiar object (A) from T1 and a novel object (B) for 3 minutes. The familiar object presented during T2 is a duplicate of the object presented in T1 in order to avoid any olfactory trails.\nThe object exploration is defined by animals licking, sniffing or touching the object with the forepaws whilst sniffing, but not leaning against, turning around, standing or sitting on the object. The exploration time (s) of each object (A1, A2, A and B) in each trial are recorded using two stopwatches and the following factors are calculated: • Total exploration time of both objects in the acquisition trial (s). • Total exploration time of both objects in the retention trial (s). • Habituation of exploratory activity. The LMA includes the exploration time, as measured by the number of lines crossed, for both the trials. • Discrimination index, which is calculated as shown below;\n(time spent exploring novel object−time spent exploring familiar object)÷total time spent in exploring the objects\nBehaviour in all trials was recorded on video for subsequent blind scoring.\n50 female hooded-Lister rats (Harlan, UK) were used as subjects for these studies. Rats were housed in groups of 5 under standard laboratory conditions under a 12 hr light:dark cycle, lights on at 0700 hr. All testing was carried out in the light phase. Food and water were freely provided. […]"}, "[2]": {"target": "T1, Adrenergic α2A Receptor (Homo sapiens, UniProt P08913)", "T1 construct": "expressed in transfected cells; host or cells: insect Sf9 cells", "T1 sequence (P08913 1-465)": "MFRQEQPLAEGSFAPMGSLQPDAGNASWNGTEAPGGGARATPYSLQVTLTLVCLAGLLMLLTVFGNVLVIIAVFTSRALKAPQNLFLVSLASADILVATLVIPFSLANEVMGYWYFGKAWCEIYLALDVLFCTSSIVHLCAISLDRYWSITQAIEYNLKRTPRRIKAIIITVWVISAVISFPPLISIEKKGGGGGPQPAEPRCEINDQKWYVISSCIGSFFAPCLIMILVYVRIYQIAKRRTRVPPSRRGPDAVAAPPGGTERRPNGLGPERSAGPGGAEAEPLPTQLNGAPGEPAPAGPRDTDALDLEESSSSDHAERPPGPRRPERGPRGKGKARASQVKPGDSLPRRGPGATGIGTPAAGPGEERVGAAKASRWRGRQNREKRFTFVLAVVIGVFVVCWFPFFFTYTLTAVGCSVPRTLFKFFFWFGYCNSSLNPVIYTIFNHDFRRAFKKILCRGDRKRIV", "assay": "Adrenergic α2A receptor radioligand binding ([3H] MK-912)", "conditions": "10 μM solution; for inhibition at 10 µM: read-out: Percentage Inhibition of Specific Binding, α2A Receptor", "protocol": "(§1) The four dihydrotetrabenazine isomers A, B, C and D were subjected to specific binding assays to test their ability to bind to the receptors and transporter proteins described below. The results are set out in Table 5\n(a) Adrenergic α2A Receptor:\n• Reference: S. Uhlen et al. J. Pharmacol. Exp. Ther., 271:1558-1565 (1994) • Source: Human recombinant insect Sf9 cells • Ligand: 1 nM [^3H]"}, "[3]": {"target": "T2, Dopamine D1 Receptor (Homo sapiens, UniProt P21728)", "T2 construct": "expressed in transfected cells; host or cells: CHO cells", "T2 sequence (P21728 whole entry)": "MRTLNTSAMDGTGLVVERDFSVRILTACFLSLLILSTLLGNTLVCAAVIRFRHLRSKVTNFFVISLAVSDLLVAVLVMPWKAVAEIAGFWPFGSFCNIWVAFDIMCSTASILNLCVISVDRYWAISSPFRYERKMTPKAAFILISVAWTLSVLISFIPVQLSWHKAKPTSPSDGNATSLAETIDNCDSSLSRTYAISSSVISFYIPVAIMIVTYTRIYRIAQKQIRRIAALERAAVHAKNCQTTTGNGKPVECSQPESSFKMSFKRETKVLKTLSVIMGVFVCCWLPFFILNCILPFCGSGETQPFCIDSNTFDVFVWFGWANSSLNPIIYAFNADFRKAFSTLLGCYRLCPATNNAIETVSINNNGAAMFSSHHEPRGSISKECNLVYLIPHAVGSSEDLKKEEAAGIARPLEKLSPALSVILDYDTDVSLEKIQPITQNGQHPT", "assay": "Dopamine D1 receptor radioligand binding ([3H] SCH-23390)", "conditions": "10 μM solution; for inhibition at 10 µM: read-out: Percentage Inhibition of Specific Binding, D1 Receptor", "protocol": "as §1\n(c) Dopamine D1 Receptor:\n• Reference: Dearry et al., Nature, 347:72-76, (1990) • Source: Human recombinant CHO cells • Ligand: 1.4 nM [3H]"}, "[4]": {"target": "T3, Dopamine Transporter (DAT) (Homo sapiens, UniProt Q01959)", "T3 construct": "expressed in transfected cells; host or cells: CHO cells", "T3 sequence (Q01959 whole entry)": "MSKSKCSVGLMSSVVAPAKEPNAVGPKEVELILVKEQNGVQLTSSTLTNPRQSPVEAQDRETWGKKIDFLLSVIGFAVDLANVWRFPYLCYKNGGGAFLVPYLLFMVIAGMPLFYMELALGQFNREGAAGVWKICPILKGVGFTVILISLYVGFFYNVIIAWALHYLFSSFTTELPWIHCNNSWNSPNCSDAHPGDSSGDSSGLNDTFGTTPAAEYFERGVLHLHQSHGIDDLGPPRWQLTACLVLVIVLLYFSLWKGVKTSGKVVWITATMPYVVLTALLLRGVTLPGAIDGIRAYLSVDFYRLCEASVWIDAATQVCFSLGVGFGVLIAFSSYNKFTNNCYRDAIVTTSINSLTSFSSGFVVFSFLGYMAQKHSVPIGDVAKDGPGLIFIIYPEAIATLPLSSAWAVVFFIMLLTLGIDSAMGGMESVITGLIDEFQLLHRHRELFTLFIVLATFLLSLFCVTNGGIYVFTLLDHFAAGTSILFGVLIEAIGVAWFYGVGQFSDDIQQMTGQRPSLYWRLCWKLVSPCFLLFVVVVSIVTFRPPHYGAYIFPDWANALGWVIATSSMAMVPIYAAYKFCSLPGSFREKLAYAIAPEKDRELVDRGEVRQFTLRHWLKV", "assay": "Dopamine transporter radioligand binding ([125I] RTI-55)", "conditions": "10 μM solution; for inhibition at 10 µM: read-out: Percentage Inhibition of Specific Binding, DAT", "protocol": "as §1\n(j) Dopamine Transporter (DAT):\n• Reference: Giros et al., Trends Pharmacol. Sci., 14, 43-49 (1993) Gu et al., J. Biol. Chem., 269(10):7124-7130 (1994) • Source: Human recombinant CHO cells • Ligand: 0.15 nM [^125I]"}, "[5]": {"target": "T4, Dopamine D2L Receptor (Homo sapiens, UniProt P14416)", "T4 construct": "expressed in transfected cells; host or cells: CHO cells", "T4 sequence (P14416 whole entry)": "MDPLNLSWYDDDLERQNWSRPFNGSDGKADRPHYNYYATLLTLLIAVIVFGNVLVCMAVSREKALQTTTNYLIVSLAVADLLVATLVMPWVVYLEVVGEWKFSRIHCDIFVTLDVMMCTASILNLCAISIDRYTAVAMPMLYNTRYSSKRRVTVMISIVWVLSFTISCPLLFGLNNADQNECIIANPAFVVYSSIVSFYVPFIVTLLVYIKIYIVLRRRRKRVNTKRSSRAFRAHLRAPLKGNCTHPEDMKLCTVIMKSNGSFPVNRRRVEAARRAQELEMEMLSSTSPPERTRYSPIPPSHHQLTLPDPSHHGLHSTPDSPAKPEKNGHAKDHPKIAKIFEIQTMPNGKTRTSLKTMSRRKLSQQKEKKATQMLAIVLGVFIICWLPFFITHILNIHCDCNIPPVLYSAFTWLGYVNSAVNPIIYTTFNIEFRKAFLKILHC", "assay": "Dopamine D2L receptor radioligand binding ([3H] Spiperone)", "conditions": "10 μM solution; for inhibition at 10 µM: read-out: Percentage Inhibition of Specific Binding, D2L Receptor", "protocol": "as §1\n(d) Dopamine D2L, Receptor:\n• Reference: Bunzo et al., Nature, 336:783-787 (1988) • Source: Human recombinant CHO cells • Ligand: 0.16 nM [3H]"}}, "note": "Entries after “also recorded” stand apart in the source; their conditions may differ.", "data": [{"smiles": "COc1cc2c(cc1OC)[C@@H]1C[C@@H](O)[C@H](CC(C)C)CN1CC2", "note": "(single isomer, unassigned) [Isomer A]", "values": [{"measurement": "Sedation (observation of behaviour)", "setting": "[1]; 30 mg/kg Isomer A p.o., rats in NOR arena", "result": "did not appear sedated"}, {"measurement": "Locomotor activity in the test arena (number of lines crossed, T1+T2)", "setting": "[1]; 30 mg/kg Isomer A p.o., sub-chronic PCP rats, FIG. 4", "result": "significant effect to reduce locomotor activity"}, {"measurement": "Attenuation of sub-chronic PCP-induced deficit, retention phase (exploration time of familiar vs novel object)", "setting": "[1]; Isomer A 3-30 mg/kg p.o. acute, 30 min before test, sub-chronic PCP 2 mg/kg i.p. twice daily 7 days, FIG. 2", "result": "has efficacy to attenuate the sub-chronic PCP-induced deficit; also recorded: significant at the highest dose"}, {"measurement": "Exploration of two identical objects in the acquisition phase (T1)", "setting": "[1]; Isomer A 3-30 mg/kg p.o., sub-chronic PCP rats, FIG. 1", "result": "no effect"}, {"measurement": "inhibition at 10 µM", "setting": "[2]", "result": 86, "unit": "%"}, {"measurement": "inhibition at 10 µM", "setting": "[3]", "result": 78, "unit": "%"}, {"measurement": "inhibition at 10 µM", "setting": "[4]", "result": 3, "unit": "%"}, {"measurement": "inhibition at 10 µM", "setting": "[5]", "result": 87, "unit": "%"}]}, {"smiles": "COc1cc2c(cc1OC)[C@H]1C[C@H](O)[C@@H](CC(C)C)CN1CC2", "note": "(single isomer, unassigned) [Isomer B]", "values": [{"measurement": "inhibition at 10 µM", "setting": "[2]", "result": 12, "unit": "%"}, {"measurement": "inhibition at 10 µM", "setting": "[3]", "result": 1, "unit": "%"}, {"measurement": "inhibition at 10 µM", "setting": "[4]", "result": 4, "unit": "%"}, {"measurement": "inhibition at 10 µM", "setting": "[5]", "result": 16, "unit": "%"}]}, {"smiles": "COc1cc2c(cc1OC)C1CC(O)C(CC(C)C)CN1CC2", "note": "(single isomer, unassigned) [Isomer C]", "values": [{"measurement": "inhibition at 10 µM", "setting": "[2]", "result": 13, "unit": "%"}, {"measurement": "inhibition at 10 µM", "setting": "[3]", "result": 6, "unit": "%"}, {"measurement": "inhibition at 10 µM", "setting": "[4]", "result": -2, "unit": "%"}, {"measurement": "inhibition at 10 µM", "setting": "[5]", "result": -14, "unit": "%"}]}, {"smiles": "COc1cc2c(cc1OC)[C@H]1C[C@@H](O)[C@H](CC(C)C)CN1CC2", "note": "(single isomer, unassigned; isomer d) [Isomer D]", "values": [{"measurement": "Percentage Inhibition of Specific Binding, α2A Receptor", "setting": "[2]", "result": 87, "unit": "%"}, {"measurement": "Percentage Inhibition of Specific Binding, D1 Receptor", "setting": "[3]", "result": 38, "unit": "%"}, {"measurement": "Percentage Inhibition of Specific Binding, DAT", "setting": "[4]", "result": 2, "unit": "%"}, {"measurement": "Percentage Inhibition of Specific Binding, D2L Receptor", "setting": "[5]", "result": 58, "unit": "%"}]}]}
